# Assays:
# Aspergillus fumigatus [1] = experiment: Antifungal activity against Aspergillus fumigatus by EUCAST method; format: functional
# Aspergillus niger [2] = experiment: Fungicidal activity against Aspergillus niger; format: functional
# Aspergillus flavus [3] = experiment: Antifungal activity against Aspergillus flavus by broth microdilution method; format: functional
# Aspergillus niger [4] = experiment: Antifungal activity against Aspergillus niger by EUCAST method; format: functional
# Rhizomucor [5] = experiment: Antifungal activity against Rhizomucor by EUCAST method; format: functional
# Aspergillus flavus [6] = experiment: Fungicidal activity against Aspergillus flavus; format: functional
# Cunninghamella [7] = experiment: Antifungal activity against Cunninghamella by EUCAST method; format: functional
# Rhizomucor [8] = experiment: Fungicidal activity against Rhizomucor; format: functional
# Aspergillus terreus [9] = experiment: Fungicidal activity against amphotericin B-resistant Aspergillus terreus; format: functional
# Mucor [10] = experiment: Antifungal activity against Mucor hyphae by EUCAST method; format: functional
# Aspergillus niger [11] = experiment: Antifungal activity against Aspergillus niger by broth microdilution method; format: functional
# Aspergillus flavus [12] = experiment: Antifungal activity against Aspergillus flavus hyphae by EUCAST method; format: functional
# Mucor [13] = experiment: Antifungal activity against Mucor by EUCAST method; format: functional
# Aspergillus terreus [14] = experiment: Antifungal activity against amphotericin B-resistant Aspergillus terreus hyphae by EUCAST method; format: functional
# Rhizomucor [15] = experiment: Antifungal activity against Rhizomucor hyphae by EUCAST method; format: functional
# Rhizopus [16] = experiment: Antifungal activity against Rhizopus hyphae by EUCAST method; format: functional
# Absidia [17] = experiment: Fungicidal activity against Absidia; format: functional
# Plasma = experiment: Plasma concentration in human; format: ADME, cell-free
# Rhizopus [18] = experiment: Fungicidal activity against Rhizopus; format: functional
# Cunninghamella [19] = experiment: Fungicidal activity against Cunninghamella; format: functional
# Aspergillus terreus [20] = experiment: Antifungal activity against amphotericin B-resistant Aspergillus terreus by EUCAST method; format: functional
# Aspergillus terreus [21] = experiment: Antifungal activity against amphotericin B-resistant Aspergillus terreus by broth microdilution method; format: functional
# Cunninghamella [22] = experiment: Antifungal activity against Cunninghamella hyphae by EUCAST method; format: functional
# Aspergillus fumigatus [23] = experiment: Fungicidal activity against Aspergillus fumigatus; format: functional
# Aspergillus fumigatus [24] = experiment: Antifungal activity against Aspergillus fumigatus hyphae by EUCAST method; format: functional
# Absidia [25] = experiment: Antifungal activity against Absidia by EUCAST method; format: functional
# Aspergillus fumigatus [26] = experiment: Antifungal activity against Aspergillus fumigatus by broth microdilution method; format: functional
# Mucor [27] = experiment: Fungicidal activity against Mucor; format: functional
# Aspergillus niger [28] = experiment: Antifungal activity against Aspergillus niger hyphae by EUCAST method; format: functional
# Rhizopus [29] = experiment: Antifungal activity against Rhizopus by EUCAST method; format: functional
# Absidia [30] = experiment: Antifungal activity against Absidia hyphae by EUCAST method; format: functional
# Aspergillus flavus [31] = experiment: Antifungal activity against Aspergillus flavus by EUCAST method; format: functional
structure (smiles),measurement,setting,value
C[C@@H](c1nc(-c2ccc(C#N)cc2)cs1)[C@](O)(Cn1cncn1)c1cc(F)ccc1F [ISAVUCONAZOLE],MIC50,Aspergillus fumigatus [1],1 µg/mL
same,MIC90,Aspergillus fumigatus [1],1 µg/mL
same,MIC90,Aspergillus niger [2],> 8 µg/mL
same,MIC,Aspergillus flavus [3],0.76 µg/mL
same,MIC50,Aspergillus niger [4],2 µg/mL
same,MIC90,Aspergillus niger [4],4 µg/mL
same,MIC50,Rhizomucor [5],> 8 µg/mL
same,MIC90,Rhizomucor [5],> 8 µg/mL
same,MIC90,Aspergillus flavus [6],2 µg/mL
same,MIC50,Cunninghamella [7],4 µg/mL
same,MIC90,Cunninghamella [7],> 8 µg/mL
same,MIC90,Rhizomucor [8],> 8 µg/mL
same,MIC90,Aspergillus terreus [9],2 µg/mL
same,MIC90,Mucor [10],> 8 µg/mL
same,MIC,Aspergillus niger [11],2.36 µg/mL
same,MIC90,Aspergillus flavus [12],2 µg/mL
same,MIC50,Mucor [13],> 8 µg/mL
same,MIC90,Mucor [13],> 8 µg/mL
same,MIC90,Aspergillus terreus [14],2 µg/mL
same,MIC90,Rhizomucor [15],> 8 µg/mL
same,MIC90,Rhizopus [16],> 8 µg/mL
same,MIC90,Absidia [17],> 8 µg/mL
same,Cp,Plasma,> 1700 ng/mL
same,MIC90,Rhizopus [18],> 8 µg/mL
same,MIC90,Cunninghamella [19],> 8 µg/mL
same,MIC50,Aspergillus terreus [20],0.5 µg/mL
same,MIC90,Aspergillus terreus [20],2 µg/mL
same,MIC,Aspergillus terreus [21],0.68 µg/mL
same,MIC90,Cunninghamella [22],> 8 µg/mL
same,MIC,Aspergillus fumigatus [23],1 µg/mL
same,MIC90,Aspergillus fumigatus [23],1 µg/mL
same,MIC90,Aspergillus fumigatus [24],1 µg/mL
same,MIC50,Absidia [25],4 µg/mL
same,MIC90,Absidia [25],> 8 µg/mL
same,MIC,Aspergillus fumigatus [26],0.63 µg/mL
same,MIC90,Mucor [27],> 8 µg/mL
same,MIC90,Aspergillus niger [28],8 µg/mL
same,MIC50,Rhizopus [29],4 µg/mL
same,MIC90,Rhizopus [29],> 8 µg/mL
same,MIC90,Absidia [30],> 8 µg/mL
same,MIC50,Aspergillus flavus [31],1 µg/mL
same,MIC90,Aspergillus flavus [31],2 µg/mL
CC[C@@H]([C@H](C)O)n1ncn(-c2ccc(N3CCN(c4ccc(OC[C@@H]5CO[C@@](Cn6cncn6)(c6ccc(F)cc6F)C5)cc4)CC3)cc2)c1=O [POSACONAZOLE],MIC50,Aspergillus fumigatus [1],0.5 µg/mL
same,MIC90,Aspergillus fumigatus [1],1 µg/mL
same,MIC90,Aspergillus niger [2],4 µg/mL
same,MIC,Aspergillus niger [4],0.25 µg/mL
same,MIC50,Aspergillus niger [4],0.25 µg/mL
same,MIC90,Aspergillus niger [4],0.5 µg/mL
same,MIC,Rhizomucor [5],1 µg/mL
same,MIC50,Rhizomucor [5],1 µg/mL
same,MIC90,Rhizomucor [5],4 µg/mL
same,MIC90,Aspergillus flavus [6],2 µg/mL
same,MIC,Cunninghamella [7],1 µg/mL
same,MIC50,Cunninghamella [7],1 µg/mL
same,MIC90,Cunninghamella [7],1 µg/mL
same,MIC90,Rhizomucor [8],> 8 µg/mL
same,MIC90,Aspergillus terreus [9],2 µg/mL
same,MIC90,Mucor [10],> 8 µg/mL
same,MIC90,Aspergillus flavus [12],1 µg/mL
same,MIC50,Mucor [13],1 µg/mL
same,MIC90,Mucor [13],1 µg/mL
same,MIC90,Aspergillus terreus [14],1 µg/mL
same,MIC90,Rhizomucor [15],8 µg/mL
same,MIC90,Rhizopus [16],> 8 µg/mL
same,MIC,Absidia [17],4 µg/mL
same,MIC90,Absidia [17],4 µg/mL
same,MIC90,Rhizopus [18],> 8 µg/mL
same,MIC,Cunninghamella [19],> 8 µg/mL
same,MIC90,Cunninghamella [19],8 µg/mL
same,MIC,Aspergillus terreus [20],0.125 µg/mL
same,MIC50,Aspergillus terreus [20],0.125 µg/mL
same,MIC90,Aspergillus terreus [20],0.5 µg/mL
same,MIC90,Cunninghamella [22],8 µg/mL
same,MIC90,Aspergillus fumigatus [23],2 µg/mL
same,MIC90,Aspergillus fumigatus [24],0.5 µg/mL
same,MIC,Absidia [25],0.5 µg/mL
same,MIC50,Absidia [25],0.5 µg/mL
same,MIC90,Absidia [25],1 µg/mL
same,MIC90,Mucor [27],> 8 µg/mL
same,MIC,Aspergillus niger [28],1 µg/mL
same,MIC90,Aspergillus niger [28],1 µg/mL
same,MIC50,Rhizopus [29],2 µg/mL
same,MIC90,Rhizopus [29],4 µg/mL
same,MIC,Absidia [30],4 µg/mL
same,MIC90,Absidia [30],4 µg/mL
same,MIC50,Aspergillus flavus [31],0.125 µg/mL
same,MIC90,Aspergillus flavus [31],0.5 µg/mL
C[C@@H](c1ncncc1F)[C@](O)(Cn1cncn1)c1ccc(F)cc1F [VORICONAZOLE],MIC50,Aspergillus fumigatus [1],1 µg/mL
same,MIC90,Aspergillus fumigatus [1],1 µg/mL
same,MIC90,Aspergillus niger [2],8 µg/mL
same,MIC50,Aspergillus niger [4],2 µg/mL
same,MIC90,Aspergillus niger [4],2 µg/mL
same,MIC,Rhizomucor [5],> 8 µg/mL
same,MIC50,Rhizomucor [5],> 8 µg/mL
same,MIC90,Rhizomucor [5],> 8 µg/mL
same,MIC90,Aspergillus flavus [6],4 µg/mL
same,MIC,Cunninghamella [7],> 8 µg/mL
same,MIC50,Cunninghamella [7],> 8 µg/mL
same,MIC90,Cunninghamella [7],> 8 µg/mL
same,MIC,Rhizomucor [8],> 8 µg/mL
same,MIC90,Rhizomucor [8],> 8 µg/mL
same,MIC90,Aspergillus terreus [9],2 µg/mL
same,MIC,Mucor [10],> 8 µg/mL
same,MIC90,Mucor [10],> 8 µg/mL
same,MIC90,Aspergillus flavus [12],2 µg/mL
same,MIC,Mucor [13],> 8 µg/mL
same,MIC50,Mucor [13],> 8 µg/mL
same,MIC90,Mucor [13],> 8 µg/mL
same,MIC90,Aspergillus terreus [14],1 µg/mL
same,MIC,Rhizomucor [15],> 8 µg/mL
same,MIC90,Rhizomucor [15],> 8 µg/mL
same,MIC,Rhizopus [16],> 8 µg/mL
same,MIC90,Rhizopus [16],> 8 µg/mL
same,MIC,Absidia [17],> 8 µg/mL
same,MIC90,Absidia [17],> 8 µg/mL
same,MIC,Rhizopus [18],> 8 µg/mL
same,MIC90,Rhizopus [18],> 8 µg/mL
same,MIC,Cunninghamella [19],> 8 µg/mL
same,MIC90,Cunninghamella [19],> 8 µg/mL
same,MIC50,Aspergillus terreus [20],0.5 µg/mL
same,MIC90,Aspergillus terreus [20],2 µg/mL
same,MIC,Cunninghamella [22],> 8 µg/mL
same,MIC90,Cunninghamella [22],> 8 µg/mL
same,MIC90,Aspergillus fumigatus [23],4 µg/mL
same,MIC90,Aspergillus fumigatus [24],1 µg/mL
same,MIC,Absidia [25],> 8 µg/mL
same,MIC50,Absidia [25],> 8 µg/mL
same,MIC90,Absidia [25],> 8 µg/mL
same,MIC,Mucor [27],> 8 µg/mL
same,MIC90,Mucor [27],> 8 µg/mL
same,MIC90,Aspergillus niger [28],4 µg/mL
same,MIC,Rhizopus [29],> 8 µg/mL
same,MIC50,Rhizopus [29],> 8 µg/mL
same,MIC90,Rhizopus [29],> 8 µg/mL
same,MIC,Absidia [30],> 8 µg/mL
same,MIC90,Absidia [30],> 8 µg/mL
same,MIC50,Aspergillus flavus [31],1 µg/mL
same,MIC90,Aspergillus flavus [31],1 µg/mL

# Source: ChEMBL document CHEMBL1649138, “In vitro activity of Isavuconazole against Aspergillus species and zygomycetes according to the methodology of the European Committee on Antimicrobial Susceptibility Testing” (Antimicrob Agents Chemother, 2009)
